Measured values published in patent publication US20260083130A1, “NOVEL SULFONATE BENZAMIDE COMPOUNDS FOR CONTROLLING INVERTEBRATE PESTS” (FMC CORPORATION, priority 2022, published 2026).
Like-named read-outs stand apart in the source and are kept apart here.

Tests used:
Format in all cases: in vivo
[1] = system: cotton melon aphid (Aphis gossypii (Glover)); test: Test E: control of cotton melon aphid, spray on okra plant; conditions: 144 h; for mortality at 2 ppm: sprayed at 2 ppm; for mortality at 10 ppm: sprayed at 10 ppm
Method: (§1) Test compounds were formulated using a solution containing 10% acetone, 90% water and 300 ppm Activator 90® non-ionic surfactant (Loveland Products, Loveland, Colorado, USA). The formulated compounds were applied in 1 mL of liquid through an atomized nozzle positioned 1.27 cm (0.5 inches) above the top of each test unit. Test compounds were sprayed at the rates indicated, and each test was replicated three times.
For evaluating control of cotton melon aphid (Aphis gossypii (Glover)) through contact and/or systemic means, the test unit consisted of a small open container with a 5-day-old okra plant inside. This was pre-infested with 30-40 insects on a piece of leaf according to the cut-leaf method, and the soil of the test unit was covered with a layer of sand.
Test compounds were formulated and sprayed at 250, 50, 10, and 2 ppm with three replications as described above. After spraying, the test units were maintained in a growth chamber for 6 days at 19° C. and 70% relative humidity. Each test unit was then visually assessed for insect mortality.

[2] = system: Corn Planthopper (Peregrinus maidis (Ashmead)); test: Test C: control of Corn Planthopper, spray on corn plant; conditions: 144 h, nymphs, assessed after 6 days; for mortality at 50 ppm: sprayed at 50 ppm; for mortality at 250 ppm: sprayed at 250 ppm
Method: as §1
For evaluating control of Corn Planthopper (Peregrinus maidis (Ashmead)) through contact and/or systemic means, the test unit consisted of a small open container with a 3- to 4-day-old corn (maize) plant inside. White sand was added to the top of the soil prior to application of the test compound.
Test compounds were formulated and sprayed at 250 and 50 ppm with three replications as described above. After spraying of the formulated test compound, the test units were allowed to dry for 1 h before they were post-infested with ˜15-20 nymphs (18-to-21-day-old). A black, screened cap was placed on the top of each test unit, and the test units were held for 6 days in a growth chamber at 22 to 24° C. and 50-70% relative humidity. Each test unit was then visually assessed for insect mortality.

[3] = system: Green Peach Aphid (Myzus persicae (Sulzer)); test: Test D: control of Green Peach Aphid, spray on radish plant; conditions: 144 h, assessed after 6 days; for mortality at 250 ppm: sprayed at 250 ppm
Method: as §1
For evaluating control of Green Peach Aphid (Myzus persicae (Sulzer)) through contact and/or systemic means, the test unit consisted of a small open container with a 12- to 15-day-old radish plant inside. Prior to compound application, each test unit was pre-infested by placing on a leaf of the test plant 30-40 aphids on a piece of leaf excised from a culture plant (cut-leaf method). The aphids moved onto the test plant as the leaf piece desiccated. After pre-infestation, the soil of the test unit was covered with a layer of sand.
Test compounds were formulated and sprayed at 250 and 50 ppm with three replications as described above. After spraying of the formulated test compound, each test unit was allowed to dry for 1 hour and then a black, screened cap was placed on top. The test units were held for 6 days in a growth chamber at 19-21° C. and 50-70% relative humidity. Each test unit was then visually assessed for insect mortality.

[4] = sprayed at 250 ppm, assessed after 6 days, read-out: mortality
[5] = sprayed at 50 ppm, assessed after 6 days, read-out: mortality

CC(NC(=O)c1cccc(OS(=O)(=O)c2ccccc2)c1)c1ncnn1-c1ncccn1 (centres unmarked) [Compound 6, 3-[(Phenylsulfonyl)oxy]-N-[1-[1-(2-pyrimidinyl)-1H-1,2,4-triazol-5-yl]ethyl]benzamide]
≥ 80%: mortality at 250 ppm [1, 4]

CC(NC(=O)c1cc(Cl)cc(OS(=O)(=O)CC(F)(F)F)c1)c1ncnn1-c1ncccn1 (centres unmarked) [Compound 52]
≥ 80%: mortality at 250 ppm [1, 4]

CC(c1ncnn1-c1ncccn1)N(CC1CC1)C(=O)c1cc(Cl)cc(OS(=O)(=O)C(F)(F)F)c1 (centres unmarked) [Compound 10, 3-Chloro-5-[[(cyclopropylmethyl)[1-[1-(2-pyrimidinyl)-1H-1,2,4-triazol-5-yl]ethyl]amino]carbonyl]phenyl 1,1,1-trifluoromethanesulfonate]
≥ 80%: mortality at 2 ppm ([1]; assessed after 6 days) | mortality at 10 ppm ([1]; assessed after 6 days) | mortality at 50 ppm [1, 5] | mortality at 250 ppm [1, 4] | mortality at 50 ppm [2] | mortality at 250 ppm [2]

CC(NC(=O)c1cc(OS(=O)(=O)C(F)(F)F)cc([N+](=O)[O-])c1)c1ncnn1-c1ncccn1 (centres unmarked) [Compound 46]
≥ 80%: mortality at 50 ppm [1, 5] | mortality at 250 ppm [1, 4]

CC(c1ncnn1-c1ncccn1)N(CC1CC1)C(=O)c1cc(OS(=O)(=O)C(F)(F)F)cc(C(F)(F)F)c1 (centres unmarked) [Compound 11, 3-[[(Cyclopropylmethyl)[1-[1-(2-pyrimidinyl)-1H-1,2,4-triazol-5-yl]ethyl]amino]carbonyl]-5-(trifluoromethyl)phenyl 1,1,1-trifluoromethanesulfonate]
≥ 80%: mortality at 2 ppm ([1]; assessed after 6 days) | mortality at 10 ppm ([1]; assessed after 6 days) | mortality at 50 ppm [1, 5] | mortality at 250 ppm [1, 4] | mortality at 50 ppm [2] | mortality at 250 ppm [2] | mortality at 250 ppm [3]

C[C@@H](NC(=O)c1cc(OS(=O)(=O)C(F)(F)F)cc(C(F)(F)F)c1)c1ncnn1-c1ncccn1 [Compound 13, (R)3-[[[1-[1-(2-Pyrimidinyl)-1H-1,2,4-triazol-5-yl]ethyl]amino]carbonyl]-5-(trifluoromethyl)phenyl 1,1,1-trifluoromethanesulfonate; (+) enantiomer]
≥ 80%: mortality at 2 ppm ([1]; assessed after 6 days) | mortality at 10 ppm ([1]; assessed after 6 days) | mortality at 50 ppm [1, 5] | mortality at 250 ppm [1, 4] | mortality at 50 ppm [2] | mortality at 250 ppm [2] | mortality at 250 ppm [3]

CCN(C(=O)c1cc(OS(=O)(=O)C(F)(F)F)cc(C(F)(F)F)c1)C(C)c1ncnn1-c1ncccn1 (centres unmarked) [Compound 27, 3-[[ethyl[1-[1-(2-pyrimidinyl)-1H-1,2,4-triazol-5-yl]ethyl]amino]carbonyl]-5-(trifluoromethyl)phenyl 1,1,1-trifluoromethanesulfonate]
≥ 80%: mortality at 50 ppm [1, 5] | mortality at 250 ppm [1, 4] | mortality at 250 ppm [2]

CC(NC(=O)c1cc(Cl)cc(OS(=O)(=O)C(F)F)c1)c1ncnn1-c1ncccn1 (centres unmarked) [Compound 39]
≥ 80%: mortality at 250 ppm [1, 4]

CC(NC(=O)c1cc(Cl)cc(OS(=O)(=O)C(F)(F)F)c1)c1ncnn1-c1ncccn1 (centres unmarked) [Compound 4, 3-Chloro-5-[[[1-[1-(2-pyrimidinyl)-1H-1,2,4-triazol-5-yl]ethyl]amino]carbonyl]phenyl 1,1,1-trifluoromethanesulfonate]
≥ 80%: mortality at 2 ppm ([1]; assessed after 6 days) | mortality at 10 ppm ([1]; assessed after 6 days) | mortality at 50 ppm [1, 5] | mortality at 250 ppm [1, 4] | mortality at 250 ppm [2] | mortality at 50 ppm ([3]; sprayed at 50 ppm) | mortality at 250 ppm [3]

CC(NC(=O)c1cc(OS(=O)(=O)C(F)F)cc(C(F)(F)F)c1)c1ncnn1-c1ncccn1 (centres unmarked) [Compound 38]
≥ 80%: mortality at 250 ppm [1, 4]

CC(NC(=O)c1cccc(OS(=O)(=O)C(F)F)c1)c1ncnn1-c1ncccn1 (centres unmarked) [Compound 7, 3-[[[1-[1-(2-Pyrimidinyl)-1H-1,2,4-triazol-5-yl]ethyl]amino]carbonyl]phenyl 1,1-difluoromethanesulfonate]
≥ 80%: mortality at 50 ppm [1, 5] | mortality at 250 ppm [1, 4]

CC(NC(=O)c1cc(OS(=O)(=O)C(F)(F)F)cc(C(F)(F)F)c1)c1ncnn1-c1ncccn1 (centres unmarked) [Compound 2, 3-[[[1-[1-(2-Pyrimidinyl)-1H-1,2,4-triazol-5-yl]ethyl]amino]carbonyl]-5-(trifluoromethyl)phenyl 1,1,1-trifluoromethanesulfonate]
≥ 80%: mortality at 2 ppm ([1]; assessed after 6 days) | mortality at 10 ppm ([1]; assessed after 6 days) | mortality at 50 ppm [1, 5] | mortality at 250 ppm [1, 4]

C[C@H](NC(=O)c1cc(OS(=O)(=O)C(F)(F)F)cc(C(F)(F)F)c1)c1ncnn1-c1ncccn1 [Compound 12, 3-[[[(1S)-[1-(2-Pyrimidinyl)-1H-1,2,4-triazol-5-yl]ethyl]amino]carbonyl]-5-(trifluoromethyl)phenyl 1,1,1-trifluoromethanesulfonate; (−) enantiomer]
≥ 80%: mortality at 250 ppm [1, 4]

COC(=O)N(C(=O)c1cc(OS(=O)(=O)C(F)(F)F)cc(C(F)(F)F)c1)C(C)c1ncnn1-c1ncccn1 (centres unmarked) [Compound 48]
≥ 80%: mortality at 50 ppm [1] | mortality at 250 ppm [1]

CC(c1ncnn1-c1ncccn1)N(C)C(=O)c1cc(Cl)cc(OS(=O)(=O)C(F)(F)F)c1 (centres unmarked) [Compound 72]
≥ 80%: mortality at 2 ppm ([1]; assessed after 6 days) | mortality at 10 ppm ([1]; assessed after 6 days) | mortality at 50 ppm [1, 5] | mortality at 250 ppm [1, 4] | mortality at 50 ppm [2] | mortality at 250 ppm [2] | mortality at 250 ppm [3]

C[C@@H](NC(=O)c1cc(Cl)cc(OS(=O)(=O)C(F)(F)F)c1)c1ncnn1-c1ncccn1 [Compound 9, 3-Chloro-5-[[[1-[1-(2-pyrimidinyl)-1H-1,2,4-triazol-5-yl]ethyl]amino]carbonyl]phenyl 1,1,1-trifluoromethanesulfonate; (+) enantiomer]
≥ 80%: mortality at 50 ppm [1, 5] | mortality at 250 ppm [1, 4] | mortality at 50 ppm [2] | mortality at 250 ppm [2] | mortality at 250 ppm [3]

CC(NC(=O)c1cc(OS(=O)(=O)CC(F)(F)F)cc(C(F)(F)F)c1)c1ncnn1-c1ncccn1 (centres unmarked) [Compound 28]
≥ 80%: mortality at 250 ppm [1, 4]

CC(NC(=O)c1cccc(OS(=O)(=O)C(F)(F)F)c1)c1ncnn1-c1ncccn1 (centres unmarked) [Compound 3, 3-[[[1-[1-(2-Pyrimidinyl)-1H-1,2,4-triazol-5-yl]ethyl]amino]carbonyl]phenyl 1,1,1-trifluoromethanesulfonate]
≥ 80%: mortality at 50 ppm [1, 5] | mortality at 250 ppm [1, 4] | mortality at 250 ppm [2]

CCN(C(=O)c1cc(Cl)cc(OS(=O)(=O)C(F)(F)F)c1)C(C)c1ncnn1-c1ncccn1 (centres unmarked) [Compound 50, 3-chloro-5-[[ethyl[1-[1-(2-pyrimidinyl)-1H-1,2,4-triazol-5-yl]ethyl]amino]carbonyl]phenyl 1,1,1-trifluoromethanesulfonate]
≥ 80%: mortality at 50 ppm [1, 5] | mortality at 250 ppm [1, 4] | mortality at 250 ppm [2] | mortality at 250 ppm [3]

CC(NC(=O)c1cc(F)cc(OS(=O)(=O)C(F)(F)F)c1)c1ncnn1-c1ncccn1 (centres unmarked) [Compound 14, 3-Fluoro-5-[[[1-[1-(2-pyrimidinyl)-1H-1,2,4-triazol-5-yl]ethyl]amino]carbonyl]phenyl 1,1,1-trifluoromethanesulfonate]
≥ 80%: mortality at 50 ppm [1, 5] | mortality at 250 ppm [1, 4]

CC(NC(=O)c1cc(Br)cc(OS(=O)(=O)C(F)(F)F)c1)c1ncnn1-c1ncccn1 (centres unmarked) [Compound 15, 3-Bromo-5-[[[1-[1-(2-pyrimidinyl)-1H-1,2,4-triazol-5-yl]ethyl]amino]carbonyl]phenyl 1,1,1-trifluoromethanesulfonate]
≥ 80%: mortality at 50 ppm [1, 5] | mortality at 250 ppm [1, 4]

COC(=O)N(C(=O)c1cc(Cl)cc(OS(=O)(=O)C(F)(F)F)c1)C(C)c1ncnn1-c1ncccn1 (centres unmarked) [Compound 20]
≥ 80%: mortality at 50 ppm [1] | mortality at 250 ppm [1]
